Measurements from patent EP0893123A1, “AGENT FOR USE IN THE PREVENTION AND TREATMENT OF DISORDERS ASSOCIATED WITH VARIOUS TYPES OF AGEING” (Peganov, Eduard Maximovich, priority 1995, dated 1997).

Tests used:
[1] = Body weight of old rats during 21 days of drinking water containing D2O; type: in vivo; details: for weight of the animals: experimental group
Procedure: (§1) The experiments were performed on 20 old (29-30 months) outbred female rats. During 21 days control group (9 rats) received usual water as free drinking, and experimental group (11 rats) drank water, containing ? 2O. Control weighing and visual observation of their behaviour was carried out. Then for 6 days both groups received usual water "to wash out " heavy water from the body in order to put both groups in equal conditions in the subsequent experiments. After that the experiment was carried out as follows: each day one control or one experimental animal was narcotised by urethane (1,3 g/kg) and decapitated. The hippocampal slices then were prepared, which were transferred to the special thermostatic chamber, where they were incubated during the experiment. The chamber was perfused at the rate of 2 ml/minute with physiological solution (content in mM: NaCl-124; KCl-5,0; CaCl2-2,5; MgSO4- 2,4; KH2PO4-1,25; NaHCO3-26; glucose-15; pH―7,4-7,5;), saturated with carbogen (95 % O2 and 5 % CO2). The slices were stored for 20-30 minutes at room temperature, then temperature was increased up to 28-29°C. Electrical activity was recorded in 1-1,5 hour after preparation of slices. The recording glass microelectrodes, filled with 2M solution of sodium citrate (electrical resistance 5-25 Mo ? ) were inserted into the layer of pyramidal neurones. Electrical stimulation of Shaffer's collaterals was made through double-barrel glass microelectrodes, filled with physiological solution, with the resistance up to 2 Mo ? , by the rectangular pulses (amplitude up to 40 V, duration 0.2 msec, frequency 0,2-0,3 Hz). Data processing was made on the computer (" Electronics D3-28 ").

hippocampus of old rats = assay: Long term potentiation (LTP, model of ageing): electrophysiology of hippocampal slices from treated old rats; type: in vivo; parameters: PS amplitude on the average: unit not given here
Source text: The following examples illustrate the invention: Example 1. Long term potentiation (LTP, model of ageing) The adequacy of the choice of the model is due the following factors: • LTP phenomenon relates to function of memory, being an initial stage in a chain of processes, resulting in formation of traces of long-term memory, since the impairment of LTP is accompanied on the behavioral level by impairment of memory, first of all on current events (Landfield . W., Lynch G., " Impaired monosynaptic potentiation of in vitro hippocmpal slices aged memory-deficient rats., J. Gerontology, 1977, v.32, 5, pp. 523-533; Landfield P.W., Pilter T.A. Applegate M. D., " The aged hippocampus: A model system for studies on mechanisms of behavioral plasticity and brain ageing) The Hippocampus, 1986, v.3, pp. 323-367). • the decrease of the content of various protein structures in old animals is reported (Monaghan D.T.et al is observed., " Age dependent loss of NMDA receptors in rodent brains ", Soc. Neurosci. Abstr.,1988, v.14, p.486; Angeluoci L., Imperato A.. " Age-dependent loss of muscarinic receptors and cholinergic impairment in the rats brain ", Neuroscience Letters, Suppl. 39, 1990, p. 8), • the degree of dementia was reported to correlate with decrease of the membrane surface density of N-methyl-D-aspartate receptors, responsible for LTP, in patients with SDAT (Represa A., et al., " Is senile dementia of the Alzheimer type associated with hippocampal plasticity", Brain research, 1988, v.457, 355-359). the decrease of the rate of overall protein synthesis and, as a consequence, deficits of various proteins and products of non-protein synthesis is characteristic not only for a brain, but also for all organs and systems and are the mostly ascertained facts, concerning ageing, and recognised markers of ageing (Markides S.C. " Protein synthesis and degradation during aging and senescence ", Biol. Rev., 19836 v.58, 343-422; Rattan S. I., " Ageing and discase: proteins as the molecular link ", Perspect. Biol and Med., 1991, v.34, 4. Pp 526-533).
as §1
Results . On the average in control group weight of the animals was : at the 1-st day 365 ± 37 g, at 21-th day 380 ± 38 g. […]

staphylococcus toxin = test system: staphylococcus toxin; parameters: species or system outbred white rats; details: rat, in vivo
[2] = test system: pseudomonas aeruginosa strain N 450; assay: Model of sepsis (intramuscular pseudomonas aeruginosa culture in 10% CaCl2); details: D2O consumed 2 days before and 9 days after infection, fig. 8
pneumococcus = assay: Bacterial shock model (intraperitoneal pneumococcus culture, minimal lethal dose)

In the case of deuterium oxide [heavy water], the “weight of the animals” value ([1]; at 21-th day of drinking water containing D2O) is reported as 375 ± 34 g, the “weight of the animals” value ([1]; at the first day, old (29-30 months) female rats) is reported as 373 ± 25 g and the “differences in animals weight and in the weight increment between the two groups” value ([1]; experimental vs control group, 21 days) is reported as “No statistically significant differences”. The “LTP occurred (share of rats)” value (hippocampus of old rats; 7 of 10 old rats of experimental group) was 70%, the “Focal evoked potentials (FEP) with preserved pre- and postsynaptic components registered (share of HSs)” value (hippocampus of old rats; 12 of 18 experimental hippocampal slices) was 67% and the “spontaneous pulse activity of pyramidal neurons of field CA1 detected (share of HSs)” value (hippocampus of old rats; 13 of 18 experimental hippocampal slices, 21 days D2O, 6 days wash out) was 72%. For the same substance, the “LTP occurred (number of HSs)” value (hippocampus of old rats; LTP = PS amplitude after tetanization increased more than by 25 %, sustained more than 30 minutes) was 10 of 18, the “increment of the potentiated response” value (hippocampus of old rats; after second tetanization, example of figure 4) was 730% and the “PS amplitude increased on the average (LTP)” value (hippocampus of old rats; after tetanization, experimental group) was 151 % + 26. The “effect of repeated tetanization” value (hippocampus of old rats; all cases, experimental group) was “further increase of the potentiated response”, the “persistence of restored LTP after cancellation of treatment” value (hippocampus of old rats; last three treated animals tested on 25-th, 26-th and 27-th days after D2O cancellation) was “persisted long (about month) after cancellation of treatment” and the “PS amplitude on the average” value (hippocampus of old rats; population spikes in experimental HSs) was 217 ± 55. The “average increase of amplitude PS (frequency potentiation)” value (hippocampus of old rats; stimulation by frequency of 1 Hz) was 55±31%, the survival of animals (staphylococcus toxin) was 40% and the time of dying (staphylococcus toxin) was “delay of the time of dying”. The “delay of lethal outcomes” value [2] was 3 days, the decrease of lethality ([2]; vs control) was 3 times and the “experimental animals still alive” value (pneumococcus; in 48 hours, when 100% of control animals had died, fig. 5) was 50%. The “dying delayed with respect to control animals” value (pneumococcus; pneumococcus culture, 10 mice, D2O drunk 2-4 days before, fig. 5) was “about 24 hours” and the dying delayed (pneumococcus; with additional treatment during shock to maintain blood circulation, fig. 6) was 48 h.
